# Tested on: luciferase gene expression in HEK 293 cells in response to Comp. 004
# Assay: Screen of riboswitch constructs with 12C6-1 variant aptamers (libraries N1-N5) against Comp. 004, luciferase in HEK 293 cells
# Type: cell-based, human
# Conditions: library N1 (J2-4), HEK 293, 25 M [sic] Comp. 004
# Source text: Cloning of riboswitch constructs containing 12C6-1 variant aptamer sequences: 12C6-1 aptamer sequence was used as template, and nucleobases were randomized at certain position in the sequence. Aptamers incorporating random mutagenesis were synthesized by Integrated DNA Technologies, Inc. Golden Gate cloning strategy (New England Biolabs, NEB) was used to clone the synthesized aptamer sequences into intron-exon-intron cassette to replace the 12C6-1 aptamer in the Luci-12C6-1 riboswitch construct, generating riboswitch constructs containing variant aptamer sequences.
# To further improve the riboswitch activity in responding to Comp. 004 and related compounds, the aptamer sequence 12C6-1 was subject to mutagenesis to generate aptamer variants, and the riboswitches containing the variant aptamers were screened against Comp. 004 for the ones that have improved dynamic range of induced gene expression (the fold induction), in comparison with the fold induction by parental riboswitch construct Luci-12C6-1. […] These loop or junction region alone or together with stem region in proximity were chosen for random mutagenesis to generate riboswitches with re-engineered aptamer sequences with improved activity.
# Five aptamer libraries N1, N2, N3, N4 and N5 were generated by randomizing nucleotides at positions in J2-4, J2-3/J3-3a/J3a-2/P3, L3a, J4-5/J5-4/P4 and L5 regions of the parent 12C6-1 sequence, respectively (see FIGS. 3a and 3b). Single bacterial colonies were picked and plasmids containing variant riboswitch constructs were screened in HEK 293 cells for improved gene regulation activity in response to 25 µM Comp. 004 as compared to parent riboswitch construct Luci-12C6-1.
row,Substance,Fold (induction of luciferase gene expression)
1,N1_2E4 (CTGGGGAGTCCTTCATGCGGGGC; chemistry not given here),10.44 fold
2,N1_2E10 (CTGGGGAGTCCTTCATGCGGGGC; chemistry not given here),2.86 fold
3,N1_2H11 (CTGGGGAGTCCTTCATGCGGGGC; chemistry not given here),2.83 fold
4,N1_2H8 (CTGGGGAGTCCTTCATGCGGGGC; chemistry not given here),1.45 fold
5,N1_2F9 (CTGGGGAGTCCTTCATGCGGGGC; chemistry not given here),1.71 fold
6,N1_2D9 (CTGGGGAGTCCTTCATGCGGGGC; chemistry not given here),9.74 fold
7,N1_2H5 (CTGGGGAGTCCTTCATGCGGGGC; chemistry not given here),1.62 fold
8,N1_2G3 (CTGGGGAGTCCTTCATGCGGGGC; chemistry not given here),36.58 fold
9,N1_2E3 (CTGGGGAGTCCTTCATGCGGGGC; chemistry not given here),5.79 fold
10,N1_2D3 (CTGGGGAGTCCTTCATGCGGGGC; chemistry not given here),5.40 fold
11,N1_2D5 (CTGGGGAGTCCTTCATGCGGGGC; chemistry not given here),35.71 fold
12,N1_2E8 (CTGGGGAGTCCTTCATGCGGGGC; chemistry not given here),5.81 fold
13,N1_2G7 (CTGGGGAGTCCTTCATGCGGGGC; chemistry not given here),2.06 fold
14,N1_2E9 (CTGGGGAGTCCTTCATGCGGGGC; chemistry not given here),11.27 fold
15,N1_2D7 (CTGGGGAGTCCTTCATGCGGGGC; chemistry not given here),2.16 fold
16,N1_2D12 (CTGGGGAGTCCTTCATGCGGGGC; chemistry not given here),3.26 fold
17,N1_2F7 (CTGGGGAGTCCTTCATGCGGGGC; chemistry not given here),41.88 fold
18,N1_2E11 (CTGGGGAGTCCTTCATGCGGGGC; chemistry not given here),15.45 fold

# Same assay, conditions: library N2 variant aptamers (J2-3, P3-J3-3a, J3a-2 randomized) of 12C6-1 in riboswitch constructs; in response to Comp. 004; HEK 293 cells
row,Substance,Fold (induction of luciferase gene expression)
1,N2_2B7 (CTGGGGAGTCCTTCATGC; chemistry not given here),1.2 fold
2,N2_2C3 (CTGGGGAGTCCTTCATGC; chemistry not given here),1.1 fold
3,N2_2H6 (CTGGGGAGTCCTTCATGC; chemistry not given here),1.0 fold
4,N2_2D4 (DNA CTGGGGAGTCCTTCATGC; chemistry not given here),0.8 fold
5,N2_2H9 (CTGGGGAGTCCTTCATGC; chemistry not given here),0.9 fold
6,N2_2F4 (DNA CTGGGGAGTCCTTCATGC; chemistry not given here),1.2 fold
7,N2_2A11 (CTGGGGAGTCCTTCATGC; chemistry not given here),1.1 fold
8,N2_2B1 (CTGGGGAGTCCTTCATGC; chemistry not given here),1.0 fold
9,N2_2B5 (CTGGGGAGTCCTTCATGC; chemistry not given here),1.0 fold
10,N2_2C2 (CTGGGGAGTCCTTCATGC; chemistry not given here),0.8 fold
11,N2_2B11 (CTGGGGAGTCCTTCATGC; chemistry not given here),1.2 fold
12,N2_2H1 (CTGGGGAGTCCTTCATGC; chemistry not given here),1.1 fold

# Same assay, conditions: library N5 variant aptamers (L5, X16-X21 randomized) of 12C6-1 in riboswitch constructs; in response to Comp. 004 treatment; HEK 293 cells
row,Substance,Fold (induction of luciferase gene expression)
1,N5_5B7 (CTGGGGAGTCCT; chemistry not given here),1317.2 fold
2,N5_14D10 (CTGGGGAGTCCT; chemistry not given here),950.5 fold
3,N5_2E11 (CTGGGGAGTCCT; chemistry not given here),1038.1 fold
4,N5_7B1 (CTGGGGAGTCCT; chemistry not given here),2062.3 fold
5,N5_7E6 (DNA CTGGGGAGTCCT; chemistry not given here),1153.2 fold
6,N5_7G8 (DNA CTGGGGAGTCCT; chemistry not given here),775.6 fold
7,N5_1D8 (CTGGGGAGTCCT; chemistry not given here),383.5 fold
8,N5_5D9 (CTGGGGAGTCCT; chemistry not given here),712.5 fold
9,N5_7C7 (DNA CTGGGGAGTCCT; chemistry not given here),489.1 fold
10,N5_2G10 (CTGGGGAGTCCT; chemistry not given here),1249.7 fold
11,N5_7B7 (CTGGGGAGTCCT; chemistry not given here),1046.3 fold
12,N5_7F3 (DNA CTGGGGAGTCCT; chemistry not given here),1139.0 fold
13,N5_3C10 (CTGGGGAGTCCT; chemistry not given here),751.6 fold
14,N5_7D4 (DNA CTGGGGAGTCCT; chemistry not given here),1144.9 fold
15,N5_5C4 (CTGGGGAGTCCT; chemistry not given here),1235.2 fold
16,N5_1F2 (CTGGGGAGTCCT; chemistry not given here),415.1 fold
17,N5_7C11 (CTGGGGAGTCCT; chemistry not given here),459.9 fold
18,N5_1H1 (CTGGGGAGTCCT; chemistry not given here),84.1 fold
19,N5_7A4 (CTGGGGAGTCCT; chemistry not given here),988.3 fold
20,N5_3C8 (CTGGGGAGTCCT; chemistry not given here),835.1 fold

row,Substance,Fold (induction of luciferase gene expression)
1,N5_7E9 (DNA CTGGGGAGTCCT; chemistry not given here),955.3 fold
2,N5_1D10 (CTGGGGAGTCCT; chemistry not given here),762.7 fold
3,N5_8D1 (DNA CTGGGGAGTCCT; chemistry not given here),1139.6 fold
4,N5_7D7 (DNA CTGGGGAGTCCT; chemistry not given here),105.5 fold
5,N5_7F1 (DNA CTGGGGAGTCCT; chemistry not given here),1744.2 fold
6,N5_2G5 (CTGGGGAGTCCT; chemistry not given here),715.9 fold
7,N5_7H10 (DNA CTGGGGAGTCCT; chemistry not given here),713.9 fold
8,N5_7E2 (DNA CTGGGGAGTCCT; chemistry not given here),1234.5 fold
9,N5_6D12 (CTGGGGAGTCCT; chemistry not given here),2318.1 fold
10,N5_7D11 (DNA CTGGGGAGTCCT; chemistry not given here),759.2 fold
11,N5_1A8 (CTGGGGAGTCCT; chemistry not given here),589.4 fold
12,N5_6A8 (CTGGGGAGTCCT; chemistry not given here),1252.2 fold
13,N5_1F3 (CTGGGGAGTCCT; chemistry not given here),212.8 fold
14,N5_1C2 (CTGGGGAGTCCT; chemistry not given here),687.2 fold
15,N5_1H2 (CTGGGGAGTCCT; chemistry not given here),386.6 fold
16,N5_7D1 (DNA CTGGGGAGTCCT; chemistry not given here),909.3 fold
17,N5_6A6 (CTGGGGAGTCCT; chemistry not given here),1024.4 fold
18,N5_5B6 (CTGGGGAGTCCT; chemistry not given here),1068.3 fold
19,N5_7C12 (CTGGGGAGTCCT; chemistry not given here),628.9 fold
20,N5_6B4 (CTGGGGAGTCCT; chemistry not given here),1435.7 fold

# Reference: patent publication US20250101436A1, “APTAMERS AND SMALL MOLECULE LIGANDS” (MeiraGTx UK II Limited, priority 2021, published 2025)
